From BindingDB's records for doi:10.1073/pnas.89.8.3630 (Synaptic Pharmaceutical, 1992) come the findings set out here.

pKi: −log10 of the molar value.

The pKi is the Ki on a negative log10 scale, so that one unit is a factor of ten. Low readings indicate a high Ki, high ones a low Ki.

Test [1] deals with 5-hydroxytryptamine receptor 1D (Homo sapiens, UniProt P28221).
The target of test [2] is 5-hydroxytryptamine receptor 1B (Homo sapiens, UniProt P28222).
Chain of 5-hydroxytryptamine receptor 1B (P28222 whole entry): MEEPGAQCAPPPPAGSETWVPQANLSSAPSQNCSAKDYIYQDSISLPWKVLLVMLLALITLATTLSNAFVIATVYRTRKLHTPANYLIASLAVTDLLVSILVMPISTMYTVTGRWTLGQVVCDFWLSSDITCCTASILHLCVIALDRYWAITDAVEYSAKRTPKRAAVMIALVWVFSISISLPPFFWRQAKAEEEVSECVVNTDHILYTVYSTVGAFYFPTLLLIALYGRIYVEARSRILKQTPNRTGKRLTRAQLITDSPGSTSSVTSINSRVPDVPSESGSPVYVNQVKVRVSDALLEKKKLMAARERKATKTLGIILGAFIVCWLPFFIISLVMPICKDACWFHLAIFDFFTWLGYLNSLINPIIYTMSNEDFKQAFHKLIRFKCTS

Chain of 5-hydroxytryptamine receptor 1D (P28221 whole entry): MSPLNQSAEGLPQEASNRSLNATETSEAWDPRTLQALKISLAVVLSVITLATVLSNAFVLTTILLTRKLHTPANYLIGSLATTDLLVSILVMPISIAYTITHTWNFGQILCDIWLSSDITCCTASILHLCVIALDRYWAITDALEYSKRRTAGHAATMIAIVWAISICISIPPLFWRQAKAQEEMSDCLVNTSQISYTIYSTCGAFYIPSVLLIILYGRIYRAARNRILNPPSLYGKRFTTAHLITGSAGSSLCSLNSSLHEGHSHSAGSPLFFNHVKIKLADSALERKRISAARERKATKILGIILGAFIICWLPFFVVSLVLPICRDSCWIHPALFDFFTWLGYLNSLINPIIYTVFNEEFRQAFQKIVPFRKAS

In test [1], `c1ccc2c(N3CCNCC3)cccc2c1` gave a pKi of 7.92. For the compound `Cc1[nH]c2ccc(O)cc2c1CCN`, the figures for the negative-log Ki (pKi) in test [1] and in test [2] were 6.07 and 6.04, respectively. With `CN1C[C@H](CO)C=C2c3cccc4[nH]cc(c34)C[C@H]21`, the pKi in test [1] is 8.92; in test [2], 9.20. Consider `CC[C@@H](CO)NC(=O)[C@@H]1C=C2c3cccc4c3c(cn4C)C[C@H]2N(C)C1`, for which the pKi was 7.60 in test [1] and 8.44 in test [2]. Take `c1ccc2nc(N3CCNCC3)ccc2c1` [2-Piperazin-1-yl-quinoline (Quipazine)]: the pKi in test [1] and in test [2] was 6.00 each time. With `O=C(CCCN1CCC2(CC1)C(=O)NCN2c1ccccc1)c1ccc(F)cc1` [8-[4-(4-fluorophenyl)-4-oxidanylidene-butyl]-1-phenyl-1,3,8-triazaspiro[4.5]decan-4-one], the negative-log Ki (pKi) was below 5.00 in test [1] and 6.00 in test [2]. On to `CC(C)NCC(O)COc1cccc2[nH]ccc12` (centres undefined) [LB-46], for which the pKi in test [1] was 5.31; in test [2] it was 5.39. Take `CCCN(CCC)CCc1c[nH]c2ccc(C(N)=O)cc12` [NN-DIPROP-5-CT]: the negative-log Ki (pKi) in test [1] was 7.38; in test [2], 7.89. The corresponding values for `COc1cc(N)c(Cl)cc1C(=O)NC1CN2CCC1CC2` (centres undefined) [ZACOPRIDE,R] are below 5.00 and below 5.00. The corresponding values for `Clc1cccc(N2CCNCC2)c1` [mCPP] are 6.44 and 6.67.
